Source: patent publication US20090093469A1, “Phenylaminopropanol Derivatives and Methods of Their Use” (WYETH, priority 2004, published 2009)
Counter-ions that a name gives are not always drawn.

The compounds below were run against T1, hNET (Homo sapiens, UniProt P23975) (assay: Norepinephrine (NE) uptake assay in MDCK-Net6 cells stably transfected with human hNET). Conditions: MDCK-Net6, read-out: % Inhibition @ 1 μM (hNET).
T1 construct: expressed in transfected cells
Assay type: cell-based
Method: Cells were plated at 300,000/T75 flask and cells were split twice weekly. […] Cells were plated at 250,000 cells/T75 flask and split twice weekly.
On day 1, cells were plated at 3,000 cells/well in growth medium and maintained in a cell incubator (37° C., 5% CO2). On day 2, growth medium was replaced with 200 μl of assay buffer (25 mM HEPES; 120 mM NaCl; 5 mM KCl; 2.5 mM CaCl2; 1.2 mM MgSO4; 2 mg/ml glucose (pH 7.4, 37° C.)) containing 0.2 mg/ml ascorbic acid and 10 μM pargyline. Plates containing cells with 200 μl of assay buffer were equilibrated for 10 minutes at 37° C. prior to addition of compounds. A stock solution of desipramine was prepared in DMSO (10 mM) and delivered to triplicate wells containing cells for a final test concentration of 1 μM. Data from these wells were used to define non-specific NE uptake (minimum NE uptake). Test compounds were prepared in DMSO (10 mM) and diluted in assay buffer according to test range (1 to 10,000 nM). Twenty-five microliters of assay buffer (maximum NE uptake) or test compound were added directly to triplicate wells containing cells in 200 μl of assay buffer. The cells in assay buffer with test compounds were incubated for 20 minutes at 37° C. To initiate the NE uptake, [^3H]NE diluted in assay buffer (120 nM final assay concentration) was delivered in 25 μl aliquots to each well and the plates were incubated for 5 minutes (37° C.). The reaction was terminated by decanting the supernatant from the plate. The plates containing cells were washed twice with 200 μl assay buffer (37° C.) to remove free radioligand. The plates were then inverted, left to dry for 2 minutes, then reinverted and air-dried for an additional 10 minutes. The cells were lysed in 25 μl of 0.25 N NaOH solution (4° C.), placed on a shake table and vigorously shaken for 5 minutes. After cell lysis, 75 μl of scintillation cocktail was added to each well and the plates were sealed with film tape. The plates were returned to the shake table and vigorously shaken for a minimum of 10 minutes to ensure adequate partitioning of organic and aqueous solutions. The plates were counted in a Wallac Microbeta counter (PerkinElmer) to collect the raw cpm data.
For each experiment, a data stream of cpm values collected from the Wallac Microbeta counter was downloaded to a Microsoft Excel statistical application program. Calculations of EC50 values were made using the transformed-both-sides logistic dose response program written by Wyeth Biometrics Department.

T1 sequence (P23975 whole entry): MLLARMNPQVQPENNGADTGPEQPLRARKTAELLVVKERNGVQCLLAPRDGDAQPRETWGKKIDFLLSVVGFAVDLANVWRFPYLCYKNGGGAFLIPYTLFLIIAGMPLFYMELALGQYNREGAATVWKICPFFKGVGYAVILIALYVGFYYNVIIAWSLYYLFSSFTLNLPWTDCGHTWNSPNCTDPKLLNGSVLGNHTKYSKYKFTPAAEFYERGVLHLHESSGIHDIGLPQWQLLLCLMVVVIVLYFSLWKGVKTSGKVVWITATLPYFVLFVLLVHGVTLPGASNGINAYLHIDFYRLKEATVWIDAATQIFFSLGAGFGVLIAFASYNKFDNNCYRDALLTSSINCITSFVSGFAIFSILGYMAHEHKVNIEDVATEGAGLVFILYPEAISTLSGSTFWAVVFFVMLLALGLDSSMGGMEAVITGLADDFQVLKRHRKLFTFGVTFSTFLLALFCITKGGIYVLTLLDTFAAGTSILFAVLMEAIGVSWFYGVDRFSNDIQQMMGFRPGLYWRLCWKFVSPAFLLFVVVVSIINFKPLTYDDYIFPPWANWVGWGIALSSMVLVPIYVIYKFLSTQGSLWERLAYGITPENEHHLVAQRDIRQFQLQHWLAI

Point of comparison: `CNC[C@H](O)[C@@H](c1ccccc1)n1ccc2ccccc21` (racemic) [Example 11, (1RS,2SR)-1-(1H-indol-1-yl)-3-(methylamino)-1-phenylpropan-2-ol hydrochloride], inhibition at 1 µM 94.5%. Against it:
- CCNC[C@H](O)[C@@H](c1ccccc1)n1ccc2ccccc21 (racemic) [Example 5, (1RS,2SR)-3-(ethylamino)-1-(1H-indol-1-yl)-1-phenylpropan-2-ol hydrochloride] — lower, 58.1%
- CCNC[C@H](O)[C@@H](c1ccccc1)n1cc(C)c2ccccc21 (racemic) [Example 12, (1RS,2SR)-3-(ethylamino)-1-(3-methyl-1H-indol-1-yl)-1-phenyl propan-2-ol hydrochloride] — lower, 70.6%
- CNC[C@@H](O)[C@@H](c1ccccc1)n1ccc2ccccc21 (racemic) [Example 16, (1RS,2RS)-1-(1H-indol-1-yl)-3-(methylamino)-1-phenylpropan-2-ol hydrochloride] — higher, 96.8%
- CNC[C@H](O)[C@@H](c1ccccc1)n1ccc2cc(F)ccc21 (racemic) [Example 20, (1RS,2SR)-1-(5-fluoro-1H-indol-1-yl)-3-(methylamino)-1-phenylpropan-2-ol hydrochloride] — lower, 85%
- Cc1cn([C@H](c2ccccc2)[C@@H](O)CN)c2ccccc12 (racemic) [Example 24, (1RS,2SR)-3-amino-1-(3-methyl-1H-indol-1-yl)-1-phenylpropan-2-ol hydrochloride] — lower, 57.2%
- CNC[C@H](O)[C@@H](c1ccccc1)n1ccc2cc(Cl)ccc21 (racemic) [Example 26, (1RS,2SR)-1-(5-chloro-1H-indol-1-yl)-3-(methylamino)-1-phenylpropan-2-ol hydrochloride] — lower, 54%
- CNC[C@@H](O)[C@@H](c1ccccc1)n1ccc2cc(Cl)ccc21 (racemic) [Example 27, hydrochloride] — lower, 75.4%
- CNC[C@@H](O)[C@H](c1ccccc1)n1ccc2cc(OC)ccc21 (racemic) [Example 80, (1RS,2SR)-1-(5-methoxy-1H-indol-1-yl)-3-(methylamino)-1-phenyl propan-2-ol hydrochloride] — lower, 83.5%

Same assay, conditions: test compound 1 μM; [3H]NE uptake, MDCK-Net6 cells; read-out: % Inhibition @ 1 μM (hNET)

Point of comparison: `NC[C@H](O)[C@@H](c1ccccc1)n1ccc2cc(F)ccc21` (racemic) [Example 19, (1RS,2SR)-3-amino-1-(5-fluoro-1H-indol-1-yl)-1-phenylpropan-2-ol hydrochloride], inhibition at 1 µM 31.6%. Against it:
- O[C@@H](CN1CCOCC1)[C@@H](c1ccccc1)n1ccc2ccccc21 (racemic) [Example 3, (1RS,2SR)-1-(1H-indol-1-yl)-3-morpholin-4-yl-1-phenylpropan-2-ol hydrochloride] — lower, 17.6%
- CN(C)C[C@H](O)[C@@H](c1ccccc1)n1ccc2ccccc21 (racemic) [Example 4, (1RS,2SR)-3-(dimethylamino)-1-(1H-indol-1-yl)-1-phenylpropan-2-ol hydrochloride] — lower, 24.5%
- CC(C)NC[C@H](O)[C@@H](c1ccccc1)n1ccc2ccccc21 (racemic) [Example 6, (1RS,2SR)-1-(1H-indol-1-yl)-3-(isopropylamino)-1-phenylpropan-2-ol hydrochloride] — lower, 13.1%
- O[C@@H](CNCc1ccccc1)[C@@H](c1ccccc1)n1ccc2ccccc21 (racemic) [Example 7, (1RS,2SR)-3-(benzylamino)-1-(1H-indol-1-yl)-1-phenylpropan-2-ol hydrochloride] — lower, 25.6%
- O[C@@H](CNCC1CCCCC1)[C@@H](c1ccccc1)n1ccc2ccccc21 (racemic) [Example 8, (1RS,2SR)-3-[(cyclohexylmethyl)amino]-1-(1H-indol-1-yl)-1-phenylpropan-2-ol hydrochloride] — higher, 53.4%
- O[C@@H](CN1CCNCC1)[C@@H](c1ccccc1)n1ccc2ccccc21 (racemic) [Example 13, (1RS,2SR)-1-(1H-indol-1-yl)-1-phenyl-3-piperazin-1-ylpropan-2-ol dihydrochloride] — higher, 34.3%
- O[C@@H](CNCc1ccncc1)[C@@H](c1ccccc1)n1ccc2ccccc21 (racemic) [Example 14, (1RS,2SR)-1-(1H-indol-1-yl)-1-phenyl-3-[(pyridin-4-ylmethyl)amino]propan-2-ol hydrochloride] — lower, 24.4%
- O[C@@H](CN1CCCCC1)[C@@H](c1ccccc1)n1ccc2cc(Cl)ccc21 (racemic) [Example 15, (1RS,2SR)-1-(5-chloro-1H-indol-1-yl)-1-phenyl-3-piperidin-1-ylpropan-2-ol hydrochloride] — lower, 8.5%
- NC[C@H](O)[C@@H](c1ccccc1)n1ccc2ccccc21 (racemic) [Example 17, (1RS,2SR)-3-amino-1-(1H-indol-1-yl)-1-phenylpropan-2-ol hydrochloride] — higher, 71%
- CCNC[C@H](O)[C@@H](c1ccccc1)n1ccc2cc(F)ccc21 (racemic) [Example 18, (1RS,2SR)-3-(ethylamino)-1-(5-fluoro-1H-indol-1-yl)-1-phenylpropan-2-ol hydrochloride] — lower, 11.3%
- CCN(C)C[C@H](O)[C@@H](c1ccccc1)n1ccc2ccccc21 (racemic) [Example 25, (1RS,2SR)-3-[ethyl(methyl)amino]-1-(1H-indol-1-yl)-1-phenylpropan-2-ol hydrochloride] — higher, 37.5%
- CNC[C@H](O)[C@@H](c1ccccc1)n1cc(C#N)c2ccccc21 (racemic) [Example 28, 1-[(1RS,2SR)-2-hydroxy-3-(methylamino)-1-phenylpropyl]-1H-indole-3-carbonitrile hydrochloride] — lower, 30.1%
- CNC[C@@H](O)[C@H](c1ccc(OC(F)(F)F)cc1)n1ccc2ccccc21 (racemic) [Example 39, (1RS,2SR)-1-(1H-indol-1-yl)-3-(methylamino)-1-[4-(trifluoromethoxy)phenyl]propan-2-ol hydrochloride] — higher, 57.4%
- CNC[C@@H](O)[C@H](c1ccc(OC)cc1)n1ccc2ccccc21 (racemic) [Example 70, (1SR,2RS)-1-(1H-indol-1-yl)-1-(4-methoxyphenyl)-3-(methylamino)propan-2-ol hydrochloride] — higher, 77.7%
- CNC[C@@H](O)[C@H](c1ccccc1)n1c(C)cc2ccccc21 (racemic) [Example 71, (1RS,2SR)-3-(methylamino)-1-(2-methyl-1H-indol-1-yl)-1-phenylpropan-2-ol hydrochloride] — higher, 44.9%
- CNC[C@@H](O)[C@H](c1ccccc1)n1cnc2ccccc21 (racemic) [Example 72, (1RS,2SR)-1-(1H-benzimidazol-1-yl)-3-(methylamino)-1-phenyl propan-2-ol hydrochloride] — lower, 24%
- CNC[C@@H](O)[C@H](c1ccccc1)n1c(C)nc2ccccc21 (racemic) [Example 73, (1RS,2SR)-3-(methylamino)-1-(2-methyl-1H-benzimidazol-1-yl)-1-phenylpropan-2-ol hydrochloride] — lower, 21.8%
- CNC[C@@H](O)[C@H](c1ccccc1)n1ccc2c(OC)cccc21 (racemic) [Example 74, (1RS,2SR)-1-(4-methoxy-1H-indol-1-yl)-3-(methylamino)-1-phenyl propan-2-ol hydrochloride] — higher, 67%
- Cc1cn([C@@H](c2ccccc2)[C@H](O)CN)c2ccc(F)cc12 (racemic) [Example 118, (1SR,2RS)-3-amino-1-(5-fluoro-3-methyl-1H-indol-1-yl)-1-phenylpropan-2-ol hydrochloride] — higher, 67.9%

Same assay, conditions: test compound 10 μM (stated in cell); [3H]NE uptake, MDCK-Net6 cells

Point of comparison: `CN1CCN(C[C@H](O)[C@@H](c2ccccc2)n2ccc3cc(F)ccc32)CC1` (racemic) [Example 2, (1RS,2SR)-1-(5-fluoro-1H-indol-1-yl)-3-(4-methylpiperazin-1-yl)-1-phenylpropan-2-ol dihydrochloride], inhibition at 10 µM 66.5%. Against it:
- Cc1cn([C@H](c2ccccc2)[C@@H](O)CNCC2CCCCC2)c2ccccc12 (racemic) [Example 9, (1RS,2SR)-3-[(cyclohexylmethyl)amino]-1-(3-methyl-1H-indol-1-yl)-1-phenylpropan-2-ol hydrochloride] — higher, 79.2%
- Cc1cn([C@H](c2ccccc2)[C@@H](O)CNC(C)C)c2ccccc12 (racemic) [Example 10, (1RS,2SR)-3-(isopropylamino)-1-(3-methyl-1H-indol-1-yl)-1-phenylpropan-2-ol hydrochloride] — higher, 70.5%
